From US20200315176A1, “FUNGICIDAL COMPOSITIONS” (SYNGENTA PARTICIPATIONS AG, priority 2017, published 2020)

Experiments:
[1] = system: Glomerella lagenarium (Colletotrichum lagenarium); assay: Example A4: fungicidal activity against Glomerella lagenarium (Colletotrichum lagenarium) liquid culture / cucumber / preventative (anthracnose); format: cell-based; details: Colletotrichum orbiculare, 20 ppm in the applied formulation, growth measured photometrically 3 to 4 days after application, read-out: disease control
Method: Mycelia fragments or conidia suspensions of a fungus prepared either freshly from liquid cultures of the fungus or from cryogenic storage, are directly mixed into nutrient broth. DMSO solutions of the test compound (max. 10 mg/mL) are diluted with 0.025% Tween20 by a factor of 50 and 10 μL of this solution is pipetted into a microtiter plate (96-well format). The nutrient broth containing the fungal spores/mycelia fragments is then added to give an end concentration of the tested compound. The test plates are incubated in the dark at 24° C. and 96% relative humidity. The inhibition of fungal growth is determined photometrically after 2 to 7 days, depending on the pathosystem, and percent antifungal activity relative to the untreated check is calculated. Conidia of the fungus from cryogenic storage are directly mixed into nutrient broth (PDB—potato dextrose broth). After placing a (DMSO) solution of test compound into a microtiter plate (96-well format), the nutrient broth containing the fungal spores is added.

[2] = system: Puccinia recondita f. sp. tritici; assay: Example A2: fungicidal activity against Puccinia recondita f. sp. tritici / wheat / leaf disc curative (brown rust); format: in vivo; details: foliar, 24 h, 200 ppm in the applied formulation, curative (applied 1 day after inoculation), wheat leaf segments, read-out: disease control
Method: (§1) Leaf disks or leaf segments of various plant species are cut from plants grown in a greenhouse. The cut leaf disks or segments are placed in multiwell plates (24-well format) onto water agar. The leaf disks are sprayed with a test solution before (preventative) or after (curative) inoculation. Compounds to be tested are prepared as DMSO solutions (max. 10 mg/mL) which are diluted to the appropriate concentration with 0.025% Tween20 just before spraying. The inoculated leaf disks or segments are incubated under defined conditions (temperature, relative humidity, light, etc.) according to the respective test system. A single evaluation of disease level is carried out 3 to 14 days after inoculation, depending on the pathosystem. Percent disease control relative to the untreated check leaf disks or segments is then calculated.
Wheat leaf segments cv. Kanzler are placed on agar in multiwell plates (24-well format). The leaf segments are then inoculated with a spore suspension of the fungus. Plates were stored in darkness at 19° C. and 75% relative humidity. The formulated test compound diluted in water was applied 1 day after inoculation. The leaf segments were incubated at 19° C. and 75% relative humidity under a light regime of 12 hours light/12 hours darkness in a climate cabinet and the activity of a compound was assessed as percent disease control compared to untreated when an appropriate level of disease damage appears in untreated check leaf segments (6 to 8 days after application).

[3] = system: Puccinia recondita f. sp. tritici; assay: Example A1: fungicidal activity against Puccinia recondita f. sp. tritici / wheat / leaf disc preventative (brown rust); format: in vivo; details: foliar, 200 ppm in the applied formulation, wheat leaf segments, compared to untreated, read-out: disease control
Method: as §1
Wheat leaf segments cv. Kanzler were placed on agar in multiwell plates (24-well format) and sprayed with the formulated test compound diluted in water. The leaf disks were inoculated with a spore suspension of the fungus 1 day after application. The inoculated leaf segments were incubated at 19° C. and 75% relative humidity (rh) under a light regime of 12 hours light/12 hours darkness in a climate cabinet and the activity of a compound was assessed as percent disease control compared to untreated when an appropriate level of disease damage appears in untreated check leaf segments (7 to 9 days after application).

Phakopsora pachrhizi = assay: Example A3: fungicidal activity against Phakopsora pachrhizi / soybean / leaf disc preventative (Asian soybean rust); format: in vivo; details: Phakopsora pachyrhizi, foliar, 200 ppm in the applied formulation, soybean leaf disks, read-out: disease control
Method: as §1
Soybean leaf disks are placed on water agar in multiwell plates (24-well format) and sprayed with the formulated test compound diluted in water. One day after application leaf discs are inoculated by spraying a spore suspension on the lower leaf surface. After an incubation period in a climate cabinet of 24-36 hours in darkness at 20° C. and 75% rh leaf disc are kept at 20° C. with 12 h light/day and 75% rh. The activity of a compound is assessed as percent disease control compared to untreated when an appropriate level of disease damage appears in untreated check leaf disks (12 to 14 days after application).

Row | Structure (SMILES) | inhibition of growth at 20 ppm [1] [%] | melting point [°C] | pest or weed control at 200 ppm [2] [%] | pest or weed control at 200 ppm [3] [%] | pest or weed control at 200 ppm (Phakopsora pachrhizi) [%]
1 | CONC(=O)c1cnn(Cc2ccc(-c3noc(C(F)(F)F)n3)cc2)c1 [X.17, N-methoxy-1-[[4-[5-(trifluoromethyl)-1,2,4-oxadiazol-3-yl]phenyl]methyl]pyrazole-4-carboxamide] | ≥ 80 | 128 to 138 | ≥ 80 | ≥ 80 | ≥ 80
2 | FC(F)(F)c1ncn(Cc2ccc(-c3noc(C(F)(F)F)n3)cc2)n1 [X.01, 5-(trifluoromethyl)-3-[4-[[3-(trifluoromethyl)-1,2,4-triazol-1-yl]methyl]phenyl]-1,2,4-oxadiazole] | ≥ 80 | 68.2 to 70.1 | ≥ 80 | ≥ 80 | ≥ 80
